Source: paper PMC7092418 (Genes and Environment, 2020)

Experiments:
S. typhimurium YG9028 = settings: Salmonella typhimurium
rat = settings: in vivo; cited from earlier work

Row | SMILES | Specific mutagenicity (S. typhimurium YG9028) | Carcinogenicity (rat)
1 | COS(C)(=O)=O [MMS, Methylmethane sulfonate] | 0.205 revertants/plate/nmole | 
2 | [N-]=[N+]=[N-].[Na+] [sodium azide] |  | non-carcinogenic
